Data reported in US11672804B1, “Pharmaceutical composition containing palbociclib and letrozole” (EGIS Gyógyszergyár Zrt., priority 2022, dated 2023).

Assays:
[1] = Compatibility tests of components, 1 month; format: physicochemical; conditions: for degradation of letrozole caused by PTSA: 1 months
Procedure: The compatibility test was performed at room temperature (25° C.), 40° C. under 75% RH and 50° C., for 1 months with the various components tested in proportion to the intended composition.

[2] = pH dependence; cited from earlier work

SMILES | degradation of palbociclib base by PTSA ([1]; 25° C., 40° C. and 50° C., one month) | solubility [2] | degradation of letrozole caused by PTSA ([1]; 25° C.) | degradation of letrozole caused by PTSA ([1]; 40° C.) | degradation of letrozole caused by PTSA ([1]; 50° C.)
CC(=O)c1c(C)c2cnc(Nc3ccc(N4CCNCC4)cn3)nc2n(C2CCCC2)c1=O [palbociclib base, Palbociclib] | did not induce degradation | soluble only in a strongly acidic medium | – | – | –
N#Cc1ccc(C(c2ccc(C#N)cc2)n2cncn2)cc1 [letrozole, Letrozole] | – | – | 5% | 12% | 15%
